From ChEMBL document CHEMBL6092152, “Overview of PRMT1 modulators: Inhibitors and degraders” (Eur J Med Chem, 2024) come the findings set out here.

The structures appear in SMILES notation. *1 amine or outer side, *2 acyl side, *3 side chain or, on linkers, in order; H or OH if unused. Where a SMILES comes first, the peptide text is derived from it. [ ]: non-standard residue; d: D form. X2 = N=C(NCCC[C@H](N[*:1])C(=O)[*:2])NCCC[C@H]1O[C@@H](n2cnc3c(N)ncnc32)[C@H](O)[C@@H]1O; Gly(N-(CH2)3-guanidino) = N=C(N)NCCCNCC(=O)O; X1 = N=C(CCl)NCCCN(CC(=O)[*:2])[*:1]; Gly(N-CH2CH2OH) = O=C(O)CNCCO; Nleu = CC(C)CNCC(=O)O; Nlys = NCCCCNCC(=O)O; Sar = CNCC(=O)O

For experiment [1], the target named is T1, Protein arginine N-methyltransferase 1 (Homo sapiens, UniProt Q99873). In words: Inhibition of His-tagged PRMT1 (unknown origin) extracted from Escherichia coli BL21 (DE3) cells.
For experiment [2], the target named is Protein arginine N-methyltransferase 6 (Homo sapiens, UniProt Q96LA8). In words: Inhibition of PRMT6 (unknown origin).
In experiment [3] the target is T1, Protein arginine N-methyltransferase 1. In words: Inhibition of PRMT1 (unknown origin).
For experiment [4] the target is unchanged. In words: Inhibition of 6His-tagged PRMT1 (11 to 353 residues) (unknown origin) extracted from Escherichia coli BL21 (DE3) cells.
For experiment [5] the target is unchanged. Kind of experiment: Inhibition of human PRMT1 assessed as methyltransferase activity using Histone H4 /H4 (1-15)-Biotin as substrate.
The next experiment deals with HCT-116. Kind of experiment: Cytotoxicity against human HCT-116 cells assessed as reduction in cell viability. In kind it is functional, cell-based.
A further experiment relates to MDA-MB-468. Kind of experiment: Cytotoxicity against human MDA-MB-468 cells assessed as reduction in cell viability incubated for 72 hrs by cell-titer blue assay. In kind it is functional, cell-based. To be noted: MDA-MB-468, 72 h.
The target of experiment [6] is T2, Protein arginine N-methyltransferase 7 (Homo sapiens, UniProt Q9NVM4).
T2 sequence (Q9NVM4 whole entry): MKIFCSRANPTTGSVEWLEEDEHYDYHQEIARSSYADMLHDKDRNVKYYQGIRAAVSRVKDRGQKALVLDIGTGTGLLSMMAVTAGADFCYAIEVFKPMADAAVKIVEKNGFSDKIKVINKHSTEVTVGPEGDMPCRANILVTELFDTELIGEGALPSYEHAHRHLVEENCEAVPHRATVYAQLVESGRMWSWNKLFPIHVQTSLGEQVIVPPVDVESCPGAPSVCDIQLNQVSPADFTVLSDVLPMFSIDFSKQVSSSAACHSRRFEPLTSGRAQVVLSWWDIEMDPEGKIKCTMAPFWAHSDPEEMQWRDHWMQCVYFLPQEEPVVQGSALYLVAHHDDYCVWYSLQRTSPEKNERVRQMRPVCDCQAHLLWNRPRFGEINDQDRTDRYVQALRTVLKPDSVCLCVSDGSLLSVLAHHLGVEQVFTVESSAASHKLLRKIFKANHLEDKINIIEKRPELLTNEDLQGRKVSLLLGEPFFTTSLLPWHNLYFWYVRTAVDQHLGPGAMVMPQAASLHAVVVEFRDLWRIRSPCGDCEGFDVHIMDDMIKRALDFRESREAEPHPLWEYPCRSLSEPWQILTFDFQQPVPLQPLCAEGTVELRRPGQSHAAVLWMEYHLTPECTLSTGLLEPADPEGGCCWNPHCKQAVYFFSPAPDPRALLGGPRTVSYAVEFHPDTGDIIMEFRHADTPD
Kind of experiment: Inhibition of PRMT7 (unknown origin).

For experiment [7], the target named is T3, Histone-arginine methyltransferase CARM1 (Homo sapiens, UniProt Q86X55).
T3 sequence (Q86X55 whole entry): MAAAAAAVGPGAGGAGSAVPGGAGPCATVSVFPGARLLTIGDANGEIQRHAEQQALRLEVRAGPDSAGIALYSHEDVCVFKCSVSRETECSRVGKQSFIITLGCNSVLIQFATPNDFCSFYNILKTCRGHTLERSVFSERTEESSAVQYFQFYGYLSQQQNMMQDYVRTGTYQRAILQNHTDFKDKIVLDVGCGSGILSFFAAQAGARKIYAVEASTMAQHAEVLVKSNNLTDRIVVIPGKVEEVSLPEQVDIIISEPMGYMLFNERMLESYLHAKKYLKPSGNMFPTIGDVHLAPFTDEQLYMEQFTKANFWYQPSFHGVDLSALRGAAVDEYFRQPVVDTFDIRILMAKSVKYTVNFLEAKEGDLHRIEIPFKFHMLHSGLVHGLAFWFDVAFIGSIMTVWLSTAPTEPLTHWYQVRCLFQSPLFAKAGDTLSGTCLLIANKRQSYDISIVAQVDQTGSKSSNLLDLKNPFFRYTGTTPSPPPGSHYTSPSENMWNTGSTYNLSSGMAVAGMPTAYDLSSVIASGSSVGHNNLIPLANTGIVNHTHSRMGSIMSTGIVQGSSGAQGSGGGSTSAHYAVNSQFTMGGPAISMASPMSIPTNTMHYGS
In words: Inhibition of PRMT4 (unknown origin).

Experiment [8] deals with Protein arginine N-methyltransferase 5 (Homo sapiens, UniProt O14744). Kind of experiment: Inhibition of PRMT5 (unknown origin).

As a reminder, the IC50 is the point on the concentration scale where inhibition reaches its midpoint.

T1 sequence (Q99873 whole entry): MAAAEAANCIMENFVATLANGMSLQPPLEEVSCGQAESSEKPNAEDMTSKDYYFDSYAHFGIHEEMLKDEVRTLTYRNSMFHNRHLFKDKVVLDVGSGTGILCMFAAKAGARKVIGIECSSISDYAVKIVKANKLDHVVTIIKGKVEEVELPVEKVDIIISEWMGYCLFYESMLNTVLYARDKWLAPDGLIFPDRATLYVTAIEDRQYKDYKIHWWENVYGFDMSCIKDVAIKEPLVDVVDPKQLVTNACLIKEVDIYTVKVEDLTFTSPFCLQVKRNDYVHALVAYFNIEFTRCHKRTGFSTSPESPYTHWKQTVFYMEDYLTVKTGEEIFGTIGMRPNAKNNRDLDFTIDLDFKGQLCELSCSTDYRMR
Protein arginine N-methyltransferase 6, sequence (Q96LA8 whole entry): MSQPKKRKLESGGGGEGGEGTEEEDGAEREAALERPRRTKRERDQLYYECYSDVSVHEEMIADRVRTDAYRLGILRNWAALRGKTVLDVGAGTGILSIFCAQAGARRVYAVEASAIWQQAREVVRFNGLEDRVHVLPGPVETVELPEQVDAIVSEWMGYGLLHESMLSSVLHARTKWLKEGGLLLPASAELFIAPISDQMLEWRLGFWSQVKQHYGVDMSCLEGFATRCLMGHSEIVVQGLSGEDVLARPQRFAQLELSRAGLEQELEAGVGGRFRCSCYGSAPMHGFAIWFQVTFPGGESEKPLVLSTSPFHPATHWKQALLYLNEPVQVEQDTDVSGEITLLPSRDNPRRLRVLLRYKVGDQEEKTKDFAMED
Protein arginine N-methyltransferase 5, sequence (O14744 whole entry): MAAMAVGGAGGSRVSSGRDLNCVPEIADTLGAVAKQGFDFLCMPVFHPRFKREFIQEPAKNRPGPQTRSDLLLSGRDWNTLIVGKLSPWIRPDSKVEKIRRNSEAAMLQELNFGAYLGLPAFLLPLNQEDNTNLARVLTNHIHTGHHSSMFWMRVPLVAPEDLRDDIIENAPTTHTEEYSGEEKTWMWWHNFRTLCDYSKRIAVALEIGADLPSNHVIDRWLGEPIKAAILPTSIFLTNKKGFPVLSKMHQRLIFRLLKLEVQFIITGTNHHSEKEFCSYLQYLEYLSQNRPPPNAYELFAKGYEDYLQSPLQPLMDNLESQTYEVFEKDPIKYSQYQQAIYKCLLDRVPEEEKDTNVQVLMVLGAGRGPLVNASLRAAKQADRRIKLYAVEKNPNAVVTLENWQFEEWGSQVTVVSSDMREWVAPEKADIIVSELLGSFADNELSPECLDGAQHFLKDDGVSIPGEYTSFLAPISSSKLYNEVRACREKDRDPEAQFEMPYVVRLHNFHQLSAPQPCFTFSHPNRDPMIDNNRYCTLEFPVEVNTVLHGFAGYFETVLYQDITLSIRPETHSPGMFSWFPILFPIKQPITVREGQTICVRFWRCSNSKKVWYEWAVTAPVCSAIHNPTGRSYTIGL

`O=C1Nc2cnc(Nc3ccc(N4CCC(O)CC4)cc3)nc2N2c3ccccc3C[C@@H]12` gave a concentration for half-maximal inhibition (IC50) in experiment [1] of 0.27 µM.
As to `CC(=O)N[C@@H](CO)C(=O)NCC(=O)N[C@@H](CCCNC(=N)NCCC[C@H]1O[C@@H](n2cnc3c(N)ncnc32)[C@H](O)[C@@H]1O)C(=O)NCC(=O)N[C@@H](CCCCN)C(=O)NCC(=O)NCC(=O)N[C@@H](CCCCN)C(N)=O` (Ac-SG[X2]GKGGK-NH2), the IC50 was 11 µM in experiment [2] and 5.36 µM in [3].
As for `NS(=O)(=O)c1ccc(CCNC/C=C/c2ccccc2)cc1`, in [4], it took 26.2 µM to reach half-maximal inhibition (IC50).
Regarding `CC(=O)N(CCO)CC(=O)NCC(=O)N(CCCNC(=N)CCl)CC(=O)NCC(=O)N(CCCCN)CC(=O)NCC(=O)NCC(=O)N(CCCCN)CC(=O)NCC(=O)N(CC(=O)NCC(=O)N(CCCCN)CC(=O)NCC(=O)NCC(=O)N(C)CC(=O)N(CCCCN)CC(N)=O)CC(C)C` (Ac-[Gly(N-CH2CH2OH)]G[X1]G[Nlys]GG[Nlys]G[Nleu]G[Nlys]GG[Sar][Nlys]-NH2), the IC50 is 8.73 µM in [5], over 500 µM with HCT-116 and over 500 µM in the experiment with MDA-MB-468.
Take `N=C(N)NCCC[C@H](NC(=O)CN)C(=O)N[C@@H](CCCNC(=N)NCCCSC[C@H]1O[C@@H](n2cnc3c(N)ncnc32)[C@H](O)[C@@H]1O)C(N)=O`: the concentration for half-maximal inhibition (IC50) came to 0.0004 µM in experiment [6], 5.9 µM in experiment [3], 0.0028 µM in [7] and 0.0004 µM in experiment [8].
For `N=C(NCCCSC[C@H]1O[C@@H](n2cnc3c(N)ncnc32)[C@H](O)[C@@H]1O)NCCC[C@H](N)C(N)=O`, in [3], 3 µM corresponded to half-maximal inhibition (IC50).
`CC(C)CN(CC(=O)NCC(=O)N(CCCCN)CC(=O)NCC(=O)NCC(=O)N(C)CC(=O)N(CCCCN)CC(N)=O)C(=O)CNC(=O)CN(CCCCN)C(=O)CNC(=O)CNC(=O)CN(CCCCN)C(=O)CNC(=O)CN(CCCNC(=N)CCl)C(=O)CNC(=O)CNCCO` (H-[Gly(N-CH2CH2OH)]G[X1]G[Nlys]GG[Nlys]G[Nleu]G[Nlys]GG[Sar][Nlys]-NH2): the IC50 in the experiment on HCT-116 and in the experiment with MDA-MB-468 was over 500 µM in each case.
As to `CC(C)CN(CC(=O)NCC(=O)N(CCCCN)CC(=O)NCC(=O)NCC(=O)N(C)CC(=O)N(CCCCN)CC(N)=O)C(=O)CNC(=O)CN(CCCCN)C(=O)CNC(=O)CNC(=O)CN(CCCCN)C(=O)CNC(=O)CN(CCCNC(=N)N)C(=O)CNC(=O)CNCCO` (H-[Gly(N-CH2CH2OH)]G[Gly(N-(CH2)3-guanidino)]G[Nlys]GG[Nlys]G[Nleu]G[Nlys]GG[Sar][Nlys]-NH2), it took 396 µM to reach half-maximal inhibition in [3] (IC50).
